The subject of this assay is HBV rcDNA in HepDE19 cells. The experiment in a line: HepDE19 assay with bDNA quantitation of HBV rcDNA. In kind it is cell-based, hepatitis B virus. As to conditions: Hepatitis B virus, HepDE19, 168 h, read-out: DE-19bDNA EC50. An outline of the steps: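 HepDE19 cells were induced by tetracycline withdrawal, then treated with compounds (0.5% DMSO final) for 7 days at 37 °C. HBV rcDNA measured by bDNA assay with HBV-specific probes. Viability assessed on replicate plates (5,000 cells/well, 4 days) by CellTiter-Glo ATP content.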

Read-outs that look alike come from different tables or passages of the source.

Usually EC50 stands for the concentration that produces a half-maximal response. Regarding `CC(c1n[nH]c(=O)c2cc(F)c(F)cc12)N(C)C(=O)[C@@H]1Cc2ccccc2N1` (stereo partly drawn) [Compound 78, (2S)-N-(1-(6,7-difluoro-4-oxo-3,4-dihydrophthalazin-1-yl)ethyl)-N-methylindoline-2-carboxamide], under “HepDE19 cells, 7 day incubation, rcDNA measured by Quantigene 2.0 bDNA assay, top concentration 25 µM”, the EC50 is 3.64 µM. Consider `C[C@H](c1n[nH]c(=O)c2cc(F)c(F)cc12)N(C)C(=O)c1cc2sc(Cl)cc2[nH]1` [Compound 79, (R)-2-chloro-N-(1-(6,7-difluoro-4-oxo-3,4-dihydrophthalazin-1-yl)ethyl)-N-methyl-4H-thieno[3,2-b]pyrrole-5-carboxamide], for which the EC50 worked out at 0.03 µM.
